Reference: patent US8859565B2, “Compound for inhibiting type 5 phosphodiesterase and preparation method thereof” (priority 2010, dated 2014)
pIC50: −log10 of the molar value. Structures can show the parent of a compound that is named as a salt. Values belong to the compound of their own block, whether it stands above or below them.

Experiments:
[1] = tested on: rats having hypertension induced by monocrotaline; details: cited from earlier work
[2] = target: T1, PDE5 (Homo sapiens, UniProt O76074); test: Inhibiting effect to PDE5 degrading cGMP (cGMP enzyme immunoassay, EIA); type: biochemical; details: 3200 fmol cGMP, PDE5 3u, 30° C., 20 min; PROBIT regression
[3] = target: T1, PDE5; test: Effect to PDE5 on cAMP (cAMP enzyme immunoassay, EIA); type: biochemical; details: 1600 fmol cAMP, PDE5 3u, 30° C., 20 min; 10^−4 to 10^−12 mol·L^−1; p>0.05, S curve cannot be fitted
[4] = tested on: pulmonary hypertension; details: animal model experiments; cited from earlier work

Structure (SMILES): COc1ccc(CNc2nnc(N3CCC(O)CC3)c3ccc(C#N)cc23)cc1Cl.Cl [E-4010]
Survival rate [1]: can increase the survival rate

pIC50 [2]: 8.67 | Effect to PDE5 on cAMP (OD value vs negative control) [3]: no substantial difference in OD value
Structure (SMILES): CCCc1nn(C)c2c(=O)[nH]c(-c3cc(S(=O)(=O)N4C[C@@H](C)N(C)[C@@H](C)C4)ccc3OCC)nc12 [ZTH, 5-[2-ethoxyphenyl-5-(3,4,5-trimethylpiperazinyl)-sulfonyl]-1-methyl-3-propyl-1,6-dihydro-7H-pyrazolo[4,3-d]pyrimidine-7-ketone citrate]

Structure (SMILES): CCCOc1ccccc1-c1nc2nn[nH]c2c(=O)[nH]1 [zaprinast]
Effect on pulmonary hypertension [4]: relatively strong effects to lower pulmonary hypertension
